US12606541B2, “PPARg modulators and methods of use” (Eisai R&D Management Co., Ltd., priority 2020, dated 2026)
Read-outs that look alike come from different tables or passages of the source.

Experiments:
[1] = molecular target: T1, His6-TEV-PPARγ-(234-505) (Homo sapiens, UniProt P37231); test: TR-FRET Assay to Measure Co-R Peptide Recruitment to PPARγ; assay type: biochemical; settings: Co-R peptide (SMRT-ID2) recruitment; top final concentration 20 μM; read-out: TR-FRET i-Ag; AC50
T1 construct: The His6-TEV-PPARγ-(234-505) protein for assay was expressed and purified; TEV cleavage site (N); made in house
T1 sequence (P37231 234-505): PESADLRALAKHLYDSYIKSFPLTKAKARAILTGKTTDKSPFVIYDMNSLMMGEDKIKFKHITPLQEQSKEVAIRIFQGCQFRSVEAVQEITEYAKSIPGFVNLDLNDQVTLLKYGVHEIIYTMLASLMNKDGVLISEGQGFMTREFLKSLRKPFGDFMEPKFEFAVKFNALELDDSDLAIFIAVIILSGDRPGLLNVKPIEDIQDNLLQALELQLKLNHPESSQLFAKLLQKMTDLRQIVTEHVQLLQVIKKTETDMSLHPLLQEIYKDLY
How it was run: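 Corepressor recruitment is measured by adding terbium-labeled anti-His antibody and FITC SMRT-ID2 peptide, at 5 and 200 nM final, after a 20-minute room-temperature protein–compound incubation. After one further hour, signal is converted to percent response between DMSO and 500 nM T0070907 wells.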

[2] = tested on: UM-UC-9 engineered cells; test: Cell proliferation / short-term viability assay, CellTiter-Glo 144 h; assay type: cell-based, human; settings: read-out: CTGlo 144 h UMUC9.5, G150
Procedure: Cell Seeding for Proliferation Assay
UM-UC-9 engineered cells were cultured in Dulbecco's Modified Eagle Medium (DMEM) supplemented with 10% FBS, 25 mM glucose (high glucose), 4.0 mM L-glutamine, 2.0 mM GlutaMAX™, 1.0 mM pyruvate, 1.0% non-essential amino acids (NEAA) in a 95% humidified incubator at 37° C. with 5% CO2. Cell banks of UM-UC-9 engineered assay-ready cells (ARCs) were prepared from a very active growth stage. Vials of ARCs containing approximately 5×10^6 cells per vial were stored in liquid nitrogen vapor phase cryostorage until use.
For making assay plates, ARCs were recovered from cryostorage, strained in a […] cell strainer, verified for cell viability >90% and counted using a cell counter (Cellometer Auto 1000, Nexelom). Each cell line was seeded into 384-well plates (50 μl/well) using DMEM medium at a density previously determined to be in log growth phase 7 days post-seeding (500 cells/well) using a bulk reagent dispenser (Multidrop™ Combi, Thermo Scientific) with a large-bore plastic-tip cassette pre-sanitized with 70% ethanol. One plate of cells was designated as the pretreatment time-zero (T0) control. Freshly seeded plates were allowed to sit lidded for 30 minutes within a biosafety cabinet for cells to settle distributed within the plate wells uniformly and then placed into an automated incubator (STX110, Liconic) at 37° C., 5% CO2, and 95% relative humidity.
Preparation of Test Compound in Assay-Ready Plate
Compounds were stored in a low-temperature sample archive as 10 mM dimethyl sulfoxide (DMSO) solutions at −20° C. under reduced humidity (−45° C. dew point) and protected from light. All samples in the automated archive are stored in 2D barcoded polypropylene tubes, tracked through a laboratory information management system (LIMS), and have been verified for identity and purity by NMR (Chemistry, H3 Biomedicine) and by LCMS (Analytical Chemistry, H3 Biomedicine) at the time of sample registration. Identity by mass matching and purity are again verified at the time of sample request fulfillment by redundant LCMS methods (acidic and basic separation protocols; Analytical Chemistry, H3 Biomedicine). Samples retrieved from low-temperature archive storage were solubilized by heated sonication (Bransonic® Ultrasonic Bath, Branson), transferred (Microlab Starlet, Hamilton) and serially-diluted (Viaflo Assist, Integra) by low-volume liquid handlers, and tracked in LIMS by automation log files to create a ID barcoded master dose-response plate (MDR) to serve as a standard source for all assay-ready plates (ARP) used within an experiment. ARPs prepared by acoustic transfer (ATS-100, EDC) of nL volumes from the MDR source were heat-sealed (PlateLoc, Agilent) and stored at −20° C. prior to use (<7 days from production). Tracking of liquid transfers via acoustic dispenser log files were used to update the LIMS system for all ARP plate maps.
Measurement of Pretreatment Control Cells and Sample Anti-Proliferative Effects on Treated Cells
On day 0 (pretreatment cells) or day 7 (treated cells), a cell proliferation assay was performed using an automated robotic assay platform (ACell, High-Res Biosolutions). Cell ARP's were removed from incubation, their plate lid discarded, and using a bulk reagent dispenser (Multidrop™ Combi, Thermo Scientific with a small-bore metal-tip cassette) 25 μL (1/2 volume) of Cell Titer-Glo® 2.0 Cell Viability Assay reagent (Promega) was added to wells of columns 1-23 (column 24 will be used as plate background or positive control). Cell ARP's were incubated at room temperature in an automation hotel position for a total of 1.0 minute while the next plate was delivered to the bulk reagent dispenser and then lid-free cell ARP's were returned to incubate at 37° C. for 2.5 hours. […]

Row | SMILES | AC50 [1] | IC50 ([2]; Homo sapiens, UM-UC-9, 144 h) | IC50 [2]
1 | COc1cc(-c2cc(C(=O)N3CCC(C(=O)NC4(C)CCC(C)CC4)CC3)n[nH]2)c(Cl)cn1 (mixture of isomers) [Example 163, 1-(5-(5-chloro-2-methoxypyridin-4-yl)-1H-pyrazole-3-carbonyl)-N (1,4-dimethylcyclohexyl)piperidine-4-carboxamide] | 447 nM | 747 nM | –
2 | COc1cc(-c2cc(C(=O)N3CCC(C(=O)NC4[C@@H]5CCC[C@H]4CC5)CC3)n[nH]2)c(F)cn1 (mixture of isomers) [Example 165, N-(bicyclo[3.2.1]octan-8-yl)-1-(5-(5-fluoro-2-methoxypyridin-4-yl)-1H-pyrazole-3-carbonyl)piperidine-4-carboxamide] | 179 nM | 435 nM | –
3 | COc1cc(-c2cc(C(=O)N3CCC(C(=O)NC4CCC(O)(C(F)(F)F)CC4)CC34CC4)n[nH]2)c(F)cn1 (mixture of isomers) [Example 169, (R)-4-(5-(5-fluoro-2-methoxypyridin-4-yl)-1H-pyrazole-3-carbonyl)-N-((1r,4R)-4-hydroxy-4-(trifluoromethyl)cyclohexyl)-4-azaspiro[2.5]octane-7-carboxamide and (S)-4-(5-(5-fluoro-2-methoxypyridin-4-yl)-1H-pyrazole-3-carbonyl)-N-((1r,4S)-4-hydroxy-4-(trifluoromethyl)cyclohexyl)-4-azaspiro[2.5]octane-7-carboxamide] | 4.5 nM | – | 2.1 nM
4 | COc1cc(-c2cc(C(=O)N3CCC(C(=O)NCc4cccc(Cl)c4)CC3C)n[nH]2)c(Cl)cn1 (mixture of isomers) [Example 172, 1-(5-(5-chloro-2-methoxypyridin-4-yl)-1H-pyrazole-3-carbonyl)-N-(3-chlorobenzyl)-2-methylpiperidine-4-carboxamide] | 16.5 nM | 163 nM | –
5 | COc1cc(-c2cc(C(=O)N3CCC(C(=O)NCc4cccc(Cl)c4)C(C)C3)n[nH]2)c(Cl)cn1 (mixture of isomers) [Example 173, 1-(5-(5-chloro-2-methoxypyridin-4-yl)-1H-pyrazole-3-carbonyl)-N-(3-chlorobenzyl)-3-methylpiperidine-4-carboxamide] | 674 nM | 2100 nM | –
6 | COc1cc(-c2cc(C(=O)N3CCC(C(=O)NCc4cccc(Cl)c4)C(F)C3)n[nH]2)c(Cl)cn1 (mixture of isomers) [Example 177, 1-(5-(5-chloro-2-methoxypyridin-4-yl)-1H-pyrazole-3-carbonyl)-N-(3-chlorobenzyl)-3-fluoropiperidine-4-carboxamide] | 29.8 nM | 68.9 nM | –
7 | COc1cc(-c2cc(C(=O)N3CCC(C(=O)NC4CC(C)(F)C4)CC3)n[nH]2)c(Cl)cn1 (mixture of isomers) [Example 246, 1-(5-(5-chloro-2-methoxypyridin-4-yl)-1H-pyrazole-3-carbonyl)-N-(3-fluoro-3-methylcyclobutyl)piperidine-4-carboxamide] | 383 nM | 1230 nM | –
8 | COc1cc(-c2cc(C(=O)N3CCC(C(=O)NC4COC(C)C4)CC3)n[nH]2)c(Cl)cn1 (mixture of isomers) [Example 247, 1-(5-(5-chloro-2-methoxypyridin-4-yl)-1H-pyrazole-3-carbonyl)-N-(5-methyltetrahydrofuran-3-yl)piperidine-4-carboxamide] | 565 nM | 2230 nM | –
9 | COc1cc(-c2cc(C(=O)N3CCC(C(=O)NC4c5ccccc5OCC4OC)CC3)n[nH]2)c(Cl)cn1 (mixture of isomers) [Example 252, 1-(5-(5-chloro-2-methoxypyridin-4-yl)-1H-pyrazole-3-carbonyl)-N-(3-methoxychroman-4-yl)piperidine-4-carboxamide] | 182 nM | 1150 nM | –
10 | COc1cc(-c2cc(C(=O)N3[C@@H]4CC[C@H]3C[C@H](C(=O)NC3CCC5(CCO5)CC3)C4)n[nH]2)c(F)cn1 (mixture of isomers) [Example 297, (1R,3S,5S)-8-[5-(5-fluoro-2-methoxypyridin-4-yl)-1H-pyrazole-3-carbonyl]-N-[1-oxaspiro[3.5]nonan-7-yl]-8-azabicyclo[3.2.1]octane-3-carboxamide] | 120 nM | 383 nM | –
11 | Cc1cc(-c2cc(C(=O)N3CC[C@@H](C(=O)NC4CCC5(CCO5)CC4)CC34CC4)n[nH]2)ncn1 (mixture of isomers) [Example 300-A, (R)-4-(5-(6-methylpyrimidin-4-yl)-1H-pyrazole-3-carbonyl)-N-(1-oxaspiro[3.5]nonan-7-yl)-4-azaspiro[2.5]octane-7-carboxamide] | 18000 nM | > 4000 nM | –
12 | COc1cc(-c2cc(C(=O)N3C4CCC3CC(C(=O)NC3CCC(C(F)(F)F)N(C)C3)C4)n[nH]2)c(F)cn1 (mixture of isomers) [Example 306-A] | 13.9 nM | 78.8 nM | –
13 | COc1cc(-c2cc(C(=O)N3[C@@H]4CC[C@H]3C[C@H](C(=O)NC3CCC5(CC3)OCC5(F)F)C4)n[nH]2)c(F)cn1 (mixture of isomers) [Example 307, (1R,3s,5S)—N-(3,3-difluoro-1-oxaspiro[3.5]nonan-7-yl)-8-(5-(5-fluoro-2-methoxypyridin-4-yl)-1H-pyrazole-3-carbonyl)-8-azabicyclo[3.2.1]octane-3-carboxamide] | 22.1 nM | 173 nM | –
14 | CCOC1(C(F)(F)F)CCC(NC(=O)[C@H]2CCN(C(=O)c3cc(-c4cc(C)ncn4)[nH]n3)C3(CC3)C2)CC1 (mixture of isomers) [Example 308-A, (S)—N-(4-ethoxy-4-(trifluoromethyl)cyclohexyl)-4-(5-(6-methylpyrimidin-4-yl)-1H-pyrazole-3-carbonyl)-4-azaspiro[2.5]octane-7-carboxamide] | 2.8 nM | 5.6 nM | –
15 | CCOC1(C(F)(F)F)CCC(NC(=O)[C@@H]2CCN(C(=O)c3cc(-c4cc(C)ncn4)[nH]n3)C3(CC3)C2)CC1 (mixture of isomers) [Example 308-B, (R)—N-(4-ethoxy-4-(trifluoromethyl)cyclohexyl)-4-(5-(6-methylpyrimidin-4-yl)-1H-pyrazole-3-carbonyl)-4-azaspiro[2.5]octane-7-carboxamide] | 548 nM | 1010 nM | –
16 | COc1cc(-c2cc(C(=O)N3[C@@H]4CC[C@H]3C[C@H](C(=O)NC3CCC5(CC3)OCCC5(F)F)C4)n[nH]2)c(F)cn1 (mixture of isomers) [Example 320, (1R,3s,5S)—N-(4,4-difluoro-1-oxaspiro[4.5]decan-8-yl)-8-(5-(5-fluoro-2-methoxypyridin-4-yl)-1H-pyrazole-3-carbonyl)-8-azabicyclo[3.2.1]octane-3-carboxamide] | 10.4 nM | 29.5 nM | –
